pIC50: −log10 of the molar value.

In this experiment the test system is HuH-7 replicon cells 5–15 and 9–13 (HCV replication). As to the kind of experiment: Inhibition of viral replication in HuH-7 replicon cells (HCV RNA / GAPDH RNA by multiplex RT-PCR). It counts as cell-based. The following applies: Hepatitis C virus, 72 h; inhibiting 50% of replication; HuH-7 replicon cells, 3 days; read-out: IC50. Here is the method: Compounds were evaluated for inhibition of viral replication according to published procedures (Bartenschlager, R., et. al., Science, 1999, 285, 110) with modifications as follows.
HuH-7 replicon cells 5–15 and 9–13 were cultured in Dulbecco's minimal essential medium (DMEM) containing high glucose and supplemented with 10% fetal bovine serum (FBS), L-glutamine (2 mM), non-essential amino acids (1×), Penicillin (100 IU/mL)/Streptomycin (100 μg/mL) and G418 (Geneticin, 750 μg/mL). Unless otherwise specified, all media components were obtained from Invitrogen. Replicon cell line stocks were maintained as sub-confluent monolayers by passaging every Monday (1:6 split) and Thursday (1:10 split) and incubated at 37° C. with 5% CO2. Tissue culture plates (96-well white clear bottom plates, Corning #3610) were seeded at 7×10^3 cells/well and incubated for 24 hours prior to addition of the compounds.
Compounds in dry powder form were diluted in DMSO (30 mM stock). Serial dilutions of each Compound in DMSO (10 mM–0.1 mM) were performed in a 96-well polypropylene plate using a microtiter format. Culture media (200 μl) was added to the corresponding wells of a sterile 96-well round bottom plate. Diluted compound (2 μl) was added to the corresponding wells of the medial plate (final compound concentrations: 100 μM–1 μM). Culture media was removed from the corresponding wells of the 96-well plate containing the replicon cells and 150 μl diluted compound added. Media containing 1% DMSO and a serially diluted IFN were included on each plate. The cultures were incubated at 37° C. with 5% CO2 for 3 days. Cultures were observed visually for cytotoxicity or compound precipitation prior to RNA extraction described below.
Total cellular RNA was extracted by spin column technology (RNeasy 96, Qiagen) using the vacuum methodology according to the manufacturer's protocol. In brief, culture media was removed and 100 μl RLT lysis buffer containing 0.14M β-mercaptoethanol (β-ME) was added to each well. The plate was kept flat on the laboratory bench and shaken vigorously to lyse the cells. An equal volume of 70% ETOH was mixed with the lysate and added to the corresponding columns of the RNeasy 96-well plate. Vacuum was applied to draw the lysate through the filters. After ventilating the plate, buffer RW1 (1 mL) was drawn through each column. The waste tray was emptied and the filters washed twice with buffer RPE (1 mL/wash). After ventilating the tray, the RNeasy plate was removed and the bottom of the plate struck several times on a stack of paper towels to remove excess wash buffer. The waste tray was removed from the vacuum apparatus and the RNeasy 96-well plate dried by applying vacuum for 10 minutes. Total cellular RNA was eluted from the columns with two washes of 60 μl RNase-free water.
Relative quantitative multiplex RT-PCR was performed using TaqMan (TM) EZ RT Core Reagent kit (Perkin Elmer) according to the manufacturer's protocol (PE Applied Biosystems User Bulletin #2). Primer 061 (NT 61–82) and 139 (NT 139–158) amplifying a short region in the 5′ untranslated region of the HCV genome were utilized at 300 nM final concentrations. Probe #3 (NT 97–119) labeled with FAM reporter dye was utilized at 200 nM final concentration. Pre-developed human GAPDH primers and probe labeled with VIC reporter dye were obtained from PE Applied Biosystems (# 4310884E) and used according to the manufacturer's protocol. TM RT-PCR master mix was prepared containing the above primers/probe for both target RNA. Total cellular RNA (2 μl) was added to the reaction tubes of a 96-well optical plate that corresponded to the wells of the replicon culture plate. The final volume of each reaction was 50 μl. A standard curve was prepared from ten-fold serial dilutions of total cellular RNA extracated from 10^6 replicon cells and eluted in 30 μl RNase-free water. […]
For the compound `O=C(N/N=C/c1ccccc1OS(=O)(=O)c1ccc(C(F)(F)F)cc1)c1c(F)cccc1F` [Compound 102, 2-{(E)-[2-(2,6-difluorobenzoyl)hydrazono]methyl}phenyl4-(trifluoromethyl)benzenesulfonate], the pIC50 was more than 5.30.

Take `COc1cccc(CC(=O)N/N=C/c2cccc(C)c2OS(=O)(=O)c2ccc(C)cc2)c1` [Compound 163, 2-((E)-{[(3-methoxyphenyl)acetyl]hydrazono}methyl)-6-methylphenyl 4-methylbenzenesulfonate]: the pIC50 was more than 5.30.

`COc1cccc(CC(=O)N/N=C/c2cc(C)ccc2OS(=O)(=O)c2ccc(C(F)(F)F)cc2)c1` [Compound 171, 2-((E)-{[(3-methoxyphenyl)acetyl]hydrazono}methyl)-4-methylphenyl 4-(trifluoromethyl)benzenesulfonate]: the pIC50 was more than 5.30.

Turning to `O=C(Cc1ccc2ccccc2c1)N/N=C/c1ccccc1OS(=O)(=O)c1ccc(C(F)(F)F)cc1` [Compound 68, 2-((E)-{2-[2-(2-naphthyl)acetyl]hydrazono}methyl)phenyl4-(trifluoromethyl)benzenesulfonate], the pIC50 was more than 5.30.

As to `COc1cccc(CC(=O)N/N=C/c2ccccc2OS(=O)(=O)c2ccc(Oc3ncc(C(F)(F)F)cc3Cl)cc2)c1` [Compound 218, 2-((E)-{2-[2-(3-methoxyphenyl)acetyl]hydrazono}methyl)-phenyl 4-{[3-chloro-5-(trifluoromethyl)pyridin-2-yl]oxy}benzenesulfonate], the pIC50 is less than 4.30.

On to `O=C(Cc1c[nH]cn1)N/N=C/c1ccccc1OS(=O)(=O)c1ccc(C(F)(F)F)cc1` [Compound 5, 2-((E)-{2-[2-(1H-imidazol-4-yl)acetyl]hydrazono}methyl)phenyl 4-(trifluoromethyl)benzenesulfonate], for which the pIC50 was more than 5.30.

Regarding `O=C(Cc1ccccc1)N/N=C/c1ccccc1OS(=O)(=O)c1ccc(C(F)(F)F)cc1` [Compound 123, 2-{(E)-[2-(2-phenylacetyl)hydrazono]methyl}phenyl 4-(trifluoromethyl)benzenesulfonate], the negative-log IC50 (pIC50) was more than 5.30.

In the case of `Cc1ccccc1S(=O)(=O)Oc1ccccc1/C=N/NC(=O)Cc1ccccc1` [Compound 110, 2-{(E)-[2-(2-phenylacetyl)hydrazono]methyl}phenyl 2-methylbenzenesulfonate], the pIC50 was less than 4.30.

With `O=C(N/N=C/c1ccccc1OS(=O)(=O)c1ccc(C(F)(F)F)cc1)C1CCCCC1` [Compound 101, 2-{(E)-[2-(cyclohexylcarbonyl)hydrazono]methyl}phenyl 4-(trifluoromethyl)benzenesulfonate], the negative logarithm of the IC50 (pIC50) was 4.30 to 5.30.

With `COc1cccc(S(=O)(=O)Oc2ccccc2/C=N/NC(=O)Cc2ccccc2)c1` [Compound 143, 2-{(E)-[2-(2-phenylacetyl)hydrazono]methyl}phenyl 3-methoxybenzenesulfonate], the negative logarithm of the IC50 (pIC50) was 4.30 to 5.30.

On to `COc1ccc(S(=O)(=O)Oc2ccccc2/C=N/NC(=O)Cc2ccccc2)cc1` [Compound 131, 2-{(E)-[2-(2-phenylacetyl)hydrazono]methyl}phenyl 4-methoxybenzenesulfonate], for which the pIC50 is more than 5.30.

As to `Cc1ccc(COc2ccccc2/C=N/NC(=O)Cc2ccccc2)cc1` [Compound 235, N′-((1E)-{2-[(4-methylbenzyl)oxy]phenyl}methylene)-2-phenylacetohydrazide], the pIC50 was less than 4.30.

As to `COc1cccc(CC(=O)N/N=C/c2ccccc2OS(=O)(=O)c2ccc(Oc3cccnc3)cc2)c1` [Compound 217, 2-((E)-{2-[2-(3-methoxyphenyl)acetyl]hydrazono}methyl)-phenyl 4-(pyridin-3-yloxy)benzenesulfonate], the pIC50 was 4.30 to 5.30.

Consider `O=C(Cc1ccc(F)cc1Cl)N/N=C/c1ccccc1OS(=O)(=O)c1ccc(C(F)(F)F)cc1` [Compound 10, 2-((E)-{2-[2-(2-chloro-4-fluorophenyl)acetyl]hydrazono}methyl)-phenyl 4-(trifluoromethyl)benzenesulfonate], for which the pIC50 was more than 5.30.

`O=C(COc1ccccc1)N/N=C/c1ccccc1OS(=O)(=O)c1ccc(C(F)(F)F)cc1` [Compound 64, 2-{(E)-[2-(2-phenoxyacetyl)hydrazono]methyl}phenyl4-(trifluoromethyl)benzenesulfonate]: the pIC50 was more than 5.30.

In the case of `O=C(N/N=C/c1ccccc1OS(=O)(=O)c1ccc(C(F)(F)F)cc1)c1ccccc1Cl` [Compound 73, 2-{(E)-[2-(2-chlorobenzoyl)hydrazono]methyl}phenyl 4-(trifluoromethyl)benzenesulfonate], the pIC50 is more than 5.30.

Regarding `N#Cc1ccc(S(=O)(=O)Oc2ccccc2/C=N/NC(=O)Cc2ccccc2)cc1` [Compound 115, 2-{(E)-[2-(2-phenylacetyl)hydrazono]methyl}phenyl 4-cyanobenzenesulfonate], the pIC50 is 4.30 to 5.30.

Turning to `O=C(Cc1ccccc1)N/N=C/c1ccccc1OS(=O)(=O)c1ccc(OC(F)(F)F)cc1` [Compound 142, 2-{(E)-[2-(2-phenylacetyl)hydrazono]methyl}phenyl 4-(trifluoromethoxy)benzenesulfonate], the pIC50 is more than 5.30.

As to `O=C(Cc1ccccc1)N/N=C/c1ccccc1OS(=O)(=O)c1ccc(F)c(Cl)c1` [Compound 120, 2-{(E)-[2-(2-phenylacetyl)hydrazono]methyl}phenyl 3-chloro-4-fluorobenzenesulfonate], the pIC50 is 4.30 to 5.30.

Consider `COc1ccc(CC(=O)N/N=C/c2ccccc2OS(=O)(=O)c2ccc(C)cc2)cc1OC` [Compound 149, 2-((E)-{2-[2-(3,4-dimethoxyphenyl)acetyl]hydrazono}methyl)-phenyl 4-methylbenzenesulfonate], for which the pIC50 is more than 5.30.

With `COc1cccc(CC(=O)N/N=C/c2cccc(C)c2OS(=O)(=O)c2ccc(C(F)(F)F)cc2)c1` [Compound 168, 2-((E)-{[(3-methoxyphenyl)acetyl]hydrazono}methyl)-6-methylphenyl 4-(trifluoromethyl)benzenesulfonate], the pIC50 is more than 5.30.

In the case of `Cn1cnc(CC(=O)N/N=C/c2ccccc2OS(=O)(=O)c2ccc(C(F)(F)F)cc2)c1` [Compound 106, 2-((E)-{2-[2-(1-methyl-1H-imidazol-4-yl)acetyl]hydrazono}methyl)phenyl 4-(trifluoromethyl)benzenesulfonate], the pIC50 was more than 5.30.

Regarding `COc1cccc(CC(=O)N/N=C/c2ccc(Cl)cc2OS(=O)(=O)c2ccc(C(F)(F)F)cc2)c1` [Compound 210, 5-chloro-2-((E)-{[(3-methoxyphenyl)acetyl]hydrazono}methyl)-phenyl 4-(trifluoromethyl)benzenesulfonate], the pIC50 is 4.30 to 5.30.

In the case of `O=C(Cc1ccccc1)N/N=C/c1ccccc1OS(=O)(=O)c1ccc(Cl)cc1` [Compound 117, 2-{(E)-[2-(2-phenylacetyl)hydrazono]methyl}phenyl 4-chlorobenzenesulfonate], the pIC50 is more than 5.30.

Turning to `COc1ccc(CC(=O)N/N=C/c2ccccc2OS(=O)(=O)c2ccc(C(F)(F)F)cc2)c(OC)c1` [Compound 51, 2-((E)-{2-[2-(2,4-dimethoxyphenyl)acetyl]hydrazono}methyl)-phenyl 4-(trifluoromethyl)benzenesulfonate], the pIC50 was more than 5.30.

As for `COc1cccc(CC(=O)N/N=C/c2ccccc2OS(=O)(=O)c2ccc(Oc3ccccc3)nc2)c1` [Compound 201, 2-((E)-{2-[2-(3-methoxyphenyl)acetyl]hydrazono}methyl)-phenyl 6-phenoxypyridine-3-sulfonate], the negative logarithm of the IC50 (pIC50) was more than 5.30.

Regarding `CC(C)(C)c1ccc(S(=O)(=O)Oc2ccccc2/C=N/NC(=O)Cc2ccccc2)cc1` [Compound 121, 2-{(E)-[2-(2-phenylacetyl)hydrazono]methyl}phenyl 4-tert-butylbenzenesulfonate], the pIC50 was more than 5.30.

Usually pIC50 stands for the IC50 on a negative log10 scale, so that one unit is a factor of ten.

The values are drawn from US7026339B2, “Inhibitors of HCV NS5B polymerase” (priority 2003, dated 2006).
